# Measured values from patent US20240208954A1, “OXADIAZOLE COMPOUND, PREPARATION METHOD THEREFOR, PHARMACEUTICAL COMPOSITION AND USE THEREOF” (SHANGHAI INSTITUTE OF MATERIA MEDICA, CHINESE ACADEMY OF …, priority 2020, published 2024).
# Values joined by “and” are separate entries in the source; they are usually repeats but may differ in a detail not shown here. Equal entries are not always repeated. Where two headings read alike, the source gives them in different places.
# How the values were obtained:
# [1] = Preliminary assessment of in vivo pharmacokinetics in rats; conditions: rats; intravenous 2 mg/kg; individual animals 1-3; listed as DC411151, 2 mg/kg
# [2] = Preliminary evaluation of pharmacokinetics in Beagle dogs; format: in vivo; conditions: for MRT inf: read-out: MRT0-∞; for Vd: read-out: Vss; for concentration at 0.083 h / concentration at 0.25 h / concentration at 0.5 h / concentration at 1 h / concentration at 2 h / concentration at 3 h / concentration at 4 h / concentration at 6 h / concentration at 8 h: read-out: Plasma drug concentration in Beagle dogs
# [3] = Beagle dogs, intragastric 3 mg/kg, individual animals 4-6, listed as DC411151
# [4] = Beagle dogs, intravenous 0.5 mg/kg, individual animals 1-3, listed as DC411151, 0.5 mg/kg
# [5] = Beagle, dog, plasma, po, 3 mg/kg, Beagle dogs, intragastric 3 mg/kg, individual animals 4-6
# [6] = Beagle, dog, plasma, po, 3 mg/kg, Beagle dogs, intragastric 3 mg/kg, mean
# [7] = beagle, dog, plasma, iv, 0.5 mg/kg, Beagle dogs, intravenous 0.5 mg/kg, individual animals 1-3
# [8] = beagle, dog, plasma, iv, 0.5 mg/kg, Beagle dogs, intravenous 0.5 mg/kg, mean
# [9] = dog, in vivo, Beagle dogs, intravenous 0.5 mg/kg, mean
smiles,measurement,setting,value
"CC(C)Oc1ccc(-c2nc(-c3ccc(CN4CC(C(=O)O)C4)c4ccccc34)no2)cc1C#N.Cl [Compound A1, 1-((4-(5-(3-cyano-4-isopropoxyphenyl)-1,2,4-oxadiazol-3-yl)naphthalen-1-yl)methyl) azetidine-3-carboxylic acid hydrochloric acid]",AUC0-∞,[1],4040 ng·h/mL and 3980 ng·h/mL
same,CL,[1],8.26 mL/min/kg and 8.38 mL/min/kg
same,MRT0-∞,[1],1.52 h and 1.69 h
same,Vss,[1],0.752 L/kg and 0.85 L/kg
same,t1/2,[1],1.15 h and 3.67 h and 4.3 h
same,AUC0-t,[2]; [3],1170 ng·h/mL and 1550 ng·h/mL and 757 ng·h/mL
same,AUC0-∞,[2]; [3],1200 ng·h/mL and 1570 ng·h/mL and 765 ng·h/mL
same,Cmax,[2]; [3],318 ng/mL and 539 ng/mL and 242 ng/mL
same,MRT0-∞,[2]; [3],2.58 h and 2.44 h
same,Tmax,[2]; [3],1 h and 0.25 h and 2 h
same,t1/2,[2]; [3],1.32 h and 1.06 h
same,plasma clearance as share of dog liver blood flow (about 31 mL/min/kg),"[2]; Beagle dogs, intravenous 0.5 mg/kg",75.2%
same,AUC0-t,[2]; [4],317 ng·h/mL and 382 ng·h/mL
same,AUC0-∞,[2]; [4],319 ng·h/mL and 382 ng·h/mL
same,CL,[2]; [4],26.1 mL/min/kg and 21.8 mL/min/kg
same,MRT0-∞,[2]; [4],0.892 h and 0.952 h
same,Vss,[2]; [4],1.40 L/kg and 1.24 L/kg
same,t1/2,[2]; [4],1.05 h and 0.905 h
same,half-life,[2]; [5],1.3 h
same,MRT inf,[2]; [5],2.93 h
same,AUC(0-inf),[2]; [6],1180 ng·h/mL
same,half-life,[2]; [6],1.23 h
same,MRT inf,[2]; [6],2.65 h
same,Tmax,"[2]; Beagle, dog, plasma, po, 3 mg/kg, Beagle dogs, intragastric 3 mg/kg, mean, read-out: Tmax",1.08 h
same,AUC(0-inf),[2]; [7],379 ng·h/mL
same,clearance,[2]; [7],22 mL/min/kg
same,half-life,[2]; [7],0.997 h
same,AUC0-t,"[2]; beagle, dog, plasma, iv, 0.5 mg/kg, Beagle dogs, intravenous 0.5 mg/kg, individual animals 1-3, read-out: AUC0-t",375 ng·h/mL
same,MRT inf,[2]; [7],0.91 h
same,Vd,[2]; [7],1.2 L/kg
same,AUC(0-inf),[2]; [8],360 ng·h/mL
same,AUC0-t,"[2]; beagle, dog, plasma, iv, 0.5 mg/kg, Beagle dogs, intravenous 0.5 mg/kg, mean, read-out: AUC0-t",358 ng·h/mL
same,MRT inf,[2]; [8],0.918 h
same,concentration at 0.083 h,"[2]; beagle, dog, plasma, iv, 0.5 mg/kg, intravenous 0.5 mg/kg, 0.083 h, individual animals 1-3",604 ng/mL
same,concentration at 0.083 h,"[2]; beagle, dog, plasma, iv, 0.5 mg/kg, intravenous 0.5 mg/kg, 0.083 h, mean",565 ng/mL
same,concentration at 0.25 h,"[2]; beagle, dog, plasma, iv, 0.5 mg/kg, intravenous 0.5 mg/kg, 0.25 h, individual animals 1-3",237 ng/mL
same,concentration at 0.25 h,"[2]; beagle, dog, plasma, iv, 0.5 mg/kg, intravenous 0.5 mg/kg, 0.25 h, mean",265 ng/mL
same,concentration at 0.5 h,"[2]; beagle, dog, plasma, iv, 0.5 mg/kg, intravenous 0.5 mg/kg, 0.5 h, individual animals 1-3",190 ng/mL
same,concentration at 0.5 h,"[2]; beagle, dog, plasma, iv, 0.5 mg/kg, intravenous 0.5 mg/kg, 0.5 h, mean",168 ng/mL
same,concentration at 1 h,"[2]; beagle, dog, plasma, iv, 0.5 mg/kg, intravenous 0.5 mg/kg, 1 h, individual animals 1-3",98.8 ng/mL
same,concentration at 1 h,"[2]; beagle, dog, plasma, iv, 0.5 mg/kg, intravenous 0.5 mg/kg, 1 h, mean",90.9 ng/mL
same,concentration at 2 h,"[2]; beagle, dog, plasma, iv, 0.5 mg/kg, intravenous 0.5 mg/kg, 2 h, individual animals 1-3",27.5 ng/mL
same,concentration at 2 h,"[2]; beagle, dog, plasma, iv, 0.5 mg/kg, intravenous 0.5 mg/kg, 2 h, mean",30.2 ng/mL
same,concentration at 3 h,"[2]; beagle, dog, plasma, iv, 0.5 mg/kg, intravenous 0.5 mg/kg, 3 h, individual animals 1-3",20.4 ng/mL
same,concentration at 3 h,"[2]; beagle, dog, plasma, iv, 0.5 mg/kg, intravenous 0.5 mg/kg, 3 h, mean",17.7 ng/mL
same,concentration at 4 h,"[2]; beagle, dog, plasma, iv, 0.5 mg/kg, intravenous 0.5 mg/kg, 4 h, individual animals 1-3",9.68 ng/mL
same,concentration at 4 h,"[2]; beagle, dog, plasma, iv, 0.5 mg/kg, intravenous 0.5 mg/kg, 4 h, mean",9.39 ng/mL
same,concentration at 6 h,"[2]; beagle, dog, plasma, iv, 0.5 mg/kg, intravenous 0.5 mg/kg, 6 h, individual animals 1-3",2.51 ng/mL
same,concentration at 6 h,"[2]; beagle, dog, plasma, iv, 0.5 mg/kg, intravenous 0.5 mg/kg, 6 h, mean",2.21 ng/mL
same,concentration at 8 h,"[2]; beagle, dog, plasma, iv, 0.5 mg/kg, intravenous 0.5 mg/kg, 8 h, mean",0.773 ng/mL
same,concentration at 0.25 h,"[2]; beagle, dog, plasma, oral, 3 mg/kg, intragastric 3 mg/kg, 0.25 h, mean",215 ng/mL
same,concentration at 0.5 h,"[2]; beagle, dog, plasma, oral, 3 mg/kg, intragastric 3 mg/kg, 0.5 h, mean",262 ng/mL
same,concentration at 1 h,"[2]; beagle, dog, plasma, oral, 3 mg/kg, intragastric 3 mg/kg, 1 h, individual animals 4-6",333 ng/mL
same,concentration at 1 h,"[2]; beagle, dog, plasma, oral, 3 mg/kg, intragastric 3 mg/kg, 1 h, mean",281 ng/mL
same,concentration at 2 h,"[2]; beagle, dog, plasma, oral, 3 mg/kg, intragastric 3 mg/kg, 2 h, individual animals 4-6",365 ng/mL
same,concentration at 2 h,"[2]; beagle, dog, plasma, oral, 3 mg/kg, intragastric 3 mg/kg, 2 h, mean",291 ng/mL
same,concentration at 3 h,"[2]; beagle, dog, plasma, oral, 3 mg/kg, intragastric 3 mg/kg, 3 h, individual animals 4-6",212 ng/mL
same,concentration at 3 h,"[2]; beagle, dog, plasma, oral, 3 mg/kg, intragastric 3 mg/kg, 3 h, mean",208 ng/mL
same,concentration at 4 h,"[2]; beagle, dog, plasma, oral, 3 mg/kg, intragastric 3 mg/kg, 4 h, mean",111 ng/mL
same,concentration at 6 h,"[2]; beagle, dog, plasma, oral, 3 mg/kg, intragastric 3 mg/kg, 6 h, mean",59.4 ng/mL
same,concentration at 8 h,"[2]; beagle, dog, plasma, oral, 3 mg/kg, intragastric 3 mg/kg, 8 h, mean",10.8 ng/mL
same,Tmax,"[2]; beagle, dog, plasma, po, 3 mg/kg, Beagle dogs, 3 mg/kg by gavage, range over animals, read-out: peak time Tmax",0.25 to 2 h
same,AUC0-t,"[2]; dog, in vivo, po, Beagle dogs, intragastric 3 mg/kg, mean, read-out: AUC0-t",1160 ng·h/mL
same,Cmax,"[2]; dog, in vivo, po, Beagle dogs, intragastric 3 mg/kg, mean, read-out: Cmax",366 ng/mL
same,clearance,[2]; [9],23.3 mL/min/kg
same,half-life,[2]; [9],0.984 h
same,Vd,[2]; [9],1.28 L/kg
same,bioavailability,"[2]; dog, plasma, oral, Beagle dogs, 3 mg/kg by gavage vs 0.5 mg/kg intravenous, read-out: absolute bioavailability",54%
same,Plasma drug concentration in Beagle dogs,"[2]; intragastric 3 mg/kg, 0.25 h, individual animals 4-6, listed as DC411151",539 ng/mL and 93.3 ng/mL and 11.2 ng/mL
same,Plasma drug concentration in Beagle dogs,"[2]; intragastric 3 mg/kg, 0.5 h, individual animals 4-6, listed as DC411151",444 ng/mL and 153 ng/mL and 188 ng/mL
same,Plasma drug concentration in Beagle dogs,"[2]; intragastric 3 mg/kg, 1 h, individual animals 4-6, listed as DC411151",193 ng/mL and 318 ng/mL
same,Plasma drug concentration in Beagle dogs,"[2]; intragastric 3 mg/kg, 2 h, individual animals 4-6, listed as DC411151",242 ng/mL and 266 ng/mL
same,Plasma drug concentration in Beagle dogs,"[2]; intragastric 3 mg/kg, 3 h, individual animals 4-6, listed as DC411151",143 ng/mL and 269 ng/mL
same,Plasma drug concentration in Beagle dogs,"[2]; intragastric 3 mg/kg, 4 h, individual animals 4-6, listed as DC411151",151 ng/mL and 62.7 ng/mL and 118 ng/mL
same,Plasma drug concentration in Beagle dogs,"[2]; intragastric 3 mg/kg, 6 h, individual animals 4-6, listed as DC411151",90.3 ng/mL and 24.0 ng/mL and 64.0 ng/mL
same,Plasma drug concentration in Beagle dogs,"[2]; intragastric 3 mg/kg, 8 h, individual animals 4-6, listed as DC411151",12.0 ng/mL and 4.87 ng/mL and 15.6 ng/mL
same,Plasma drug concentration in Beagle dogs,"[2]; intragastric 3 mg/kg, 24 h, individual animals 4-6",BQL
same,Plasma drug concentration in Beagle dogs,"[2]; intravenous 0.5 mg/kg, 0.083 h, individual animals 1-3, listed as DC411151, 0.5 mg/kg",554 ng/mL and 537 ng/mL
same,Plasma drug concentration in Beagle dogs,"[2]; intravenous 0.5 mg/kg, 0.25 h, individual animals 1-3, listed as DC411151, 0.5 mg/kg",219 ng/mL and 340 ng/mL
same,Plasma drug concentration in Beagle dogs,"[2]; intravenous 0.5 mg/kg, 0.5 h, individual animals 1-3, listed as DC411151, 0.5 mg/kg",138 ng/mL and 176 ng/mL
same,Plasma drug concentration in Beagle dogs,"[2]; intravenous 0.5 mg/kg, 1 h, individual animals 1-3, listed as DC411151, 0.5 mg/kg",76.9 ng/mL and 97.1 ng/mL
same,Plasma drug concentration in Beagle dogs,"[2]; intravenous 0.5 mg/kg, 2 h, individual animals 1-3, listed as DC411151, 0.5 mg/kg",27.8 ng/mL and 35.4 ng/mL
same,Plasma drug concentration in Beagle dogs,"[2]; intravenous 0.5 mg/kg, 3 h, individual animals 1-3, listed as DC411151, 0.5 mg/kg",12.5 ng/mL and 20.3 ng/mL
same,Plasma drug concentration in Beagle dogs,"[2]; intravenous 0.5 mg/kg, 4 h, individual animals 1-3, listed as DC411151, 0.5 mg/kg",7.88 ng/mL and 10.6 ng/mL
same,Plasma drug concentration in Beagle dogs,"[2]; intravenous 0.5 mg/kg, 6 h, individual animals 1-3, listed as DC411151, 0.5 mg/kg",1.64 ng/mL and 2.47 ng/mL
same,Plasma drug concentration in Beagle dogs,"[2]; intravenous 0.5 mg/kg, 8 h, individual animals 1-3, listed as DC411151, 0.5 mg/kg",BQL and 1.05 ng/ml and 0.496 ng/ml
